The record followed here is patent publication US12385009B2, “Methods and compositions for generating oligodendrocyte progenitor cells” (Trailhead Biosystems Inc., priority 2021, dated 2025).

“Also recorded” adds a separate entry of the source.

The subject of the first assay is human pluripotent stem cells. Briefly: HD-DoE #2: 13-factor experiment, differentiation toward anterior neuroectoderm (OTX2, FEZF2 expression). In kind it is cell-based. The following applies: 13-factor model. An excerpt:
(§1) This example utilizes a method of High-Dimensional Design of Experiments (HD-DoE), as previously described in Bukys et al. (2020) Iscience 23:101346. The method employs computerized design geometries to simultaneously test multiple process inputs and offers mathematical modeling of a deep effector/response space. The method allows for finding combinatorial signaling inputs that control a complex process, such as during cell differentiation. It allows testing of multiple plausible critical process parameters, as such parameters impact output responses, such as gene expression. Because gene expression provides hallmark features of the phenotype of, for example, a human cell, the method can be applied to identify, and understand, which signaling pathways control cell fate. In the current example, the HD-DOE method was applied with the intent to find conditions for induction of oligodendrocyte progenitor-expressed genes, directly from the pluripotent stem cell state.
(§2) Specifically, to develop a novel method to generate oligodendrocytes, the impact of agonists and antagonists of multiple signaling pathways (herein called effectors) were tested on expression of two sets of 53 pre-selected genes after a 3-day treatment. These effectors are small molecules that are commonly used during stepwise differentiation of stem cells to specific fates. Choice of the effectors were based on current literature on neural induction in anterior ectoderm and differentiation of stem cells to oligodendrocytes.
To further enhance the conditions for oligodendrocyte differentiation from pluripotency, we performed an additional HD-DoE experiment. We obtained additional gene regulatory models that were used for preparation of a differentiation protocol. The basis of this was a 13-factor HD-DoE experiment with focus on initiation of differentiation of cells toward anterior neuroectoderm. In this model, we focused on expression of FEZF2 and OTX2.
As to `c1ccc2c(Oc3nc(Nc4ccc(N5CCOCC5)cc4)c4ncn(C5CCCCC5)c4n3)cccc2c1` [Purmorphamine], the “effect on expression of FEZF2 (dynamic profiling analysis)” value is on record as “significant positive effects” and the “impact on expression level of OTX2 (dynamic profiling analysis)” value was “no negative impact”. As to `Oc1nc(-c2ccc(C(F)(F)F)cc2)nc2c1CSCC2` [XAV939], the “effect on expression of FEZF2 (dynamic profiling analysis)” value is recorded as “significant positive effects” and the “impact on expression level of OTX2 (dynamic profiling analysis)” value is listed as “no negative impact”.

The same assay, now with this note: 13-factor model of high expression of OTX2.
In the case of `Cc1c[nH]c(-c2cnc(NCCNc3ccc(C#N)cn3)nc2-c2ccc(Cl)cc2Cl)n1` [CHIR99021], the “contribution to expression of OTX2 (in words)” value (from here on “contribution to expression”) is “positive contribution”. With `COc1ccc2c(c1)c(C1=C(c3c[nH]c4ccccc34)C(=O)NC1=O)cn2CCCN(C)C` [Go6983], the “contribution to expression” value is given as “positive contribution”. Consider `c1ccc2c(-c3cnn4cc(-c5ccc(N6CCNCC6)cc5)cnc34)ccnc2c1` [LDN193189], for which the “contribution to expression” value is “positive contribution”. On the same count and under the same terms, in the case of `O=C(NOC[C@H](O)CO)c1ccc(F)c(F)c1Nc1ccc(I)cc1F` [PD0325901] it was “positive contribution”.

In the next assay the test system is human pluripotent stem cells. Description: HD-DoE #1: 8-factor experiment, gene expression after 3-day treatment with effectors. Conditions: 8-factor model. The format is cell-based.
Source text: as §1, §2
To test the effectors, experiments with at least 8 factors were designed that can assess the response of cells to 48 or more different combinations of effectors in a range of concentrations. To analyze the models, we focused on expression of genes expressed during early development of anterior neuroectoderm and oligodendrocytes including NKX2-2, OLIG2, OLIG1, and PDGFRA. The impact of each effector on gene expression level is defined by a parameter called factor contribution that is calculated for each effector during the modeling.
This model tested 8 factors: PD0325901, MK2206, TTNPB, SC79, MHY1485, ZM336372, AGN193109 and AZD3147.
On to `O=[N+]([O-])c1ccc(Nc2nc(N3CCOCC3)nc(N3CCOCC3)n2)cc1` [MHY1485], for which the “effect on expression of targeted oligodendrocyte genes (NKX2-2, OLIG2)” value (“effect on expression … (NKX2-2, OLIG2)” for short) is “significant positive effect”. On the same count and under the same terms, in the case of `NC1(c2ccc(-c3nc4ccn5c(=O)[nH]nc5c4cc3-c3ccccc3)cc2)CCC1` [MK2206] it was “negative effect”; in that of `O=C(NOC[C@H](O)CO)c1ccc(F)c(F)c1Nc1ccc(I)cc1F` [PD0325901], “negatively impacting; also recorded: negative effect”; in that of `CCOC(=O)C1=C(N)Oc2ccc(Cl)cc2C1C(C#N)C(=O)OCC` (centres unmarked) [SC79], “significant positive effect”. Regarding `C/C(=C\c1ccc(C(=O)O)cc1)c1ccc2c(c1)C(C)(C)CCC2(C)C` [TTNPB], the “effect on expression … (NKX2-2, OLIG2)” value is “significant positive effect”.

`Cc1ccc(NC(=O)c2cccc(N(C)C)c2)cc1NC(=O)c1ccc(O)cc1` [ZM336372]: the “effect on expression … (NKX2-2, OLIG2)” value is given as “negatively impacting”.
